PMC9975039 (Oncogene, 2023)

Molecular target: T1, AKR1C3 (Homo sapiens, UniProt P42330)
T1 sequence (P42330 1-323): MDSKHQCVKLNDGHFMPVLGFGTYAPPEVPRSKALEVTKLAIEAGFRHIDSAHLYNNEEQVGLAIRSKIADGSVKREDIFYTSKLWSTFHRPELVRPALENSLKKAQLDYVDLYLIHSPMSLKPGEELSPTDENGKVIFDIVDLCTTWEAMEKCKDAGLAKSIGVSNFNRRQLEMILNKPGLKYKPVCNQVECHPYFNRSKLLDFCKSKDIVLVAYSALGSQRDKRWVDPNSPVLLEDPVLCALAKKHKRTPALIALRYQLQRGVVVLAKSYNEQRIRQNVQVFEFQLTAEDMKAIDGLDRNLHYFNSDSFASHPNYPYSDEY
Test: S-tetralol oxidation assay, recombinant AKR1C3, absorbance at […] nm
Type: biochemical

## NS(=O)(=O)c1ccc(-n2nc(CCCNC(=O)Nc3ccc(C(F)(F)F)cc3)cc2-c2ccccc2)cc1 [PTUPB, 4-(5-phenyl-3-{3-[3-(4-trifluoromethyl-phenyl)-ureido]-propyl}-pyrazol-1-yl)-benzenesulfonamide]
  IC50: ~65 nM
